Results published in patent publication US11866518B2, “Bicyclic peptide ligands specific for TSLP” (BicycleTx Limited, priority 2020, dated 2024).
*1 amine or outer side, *2 acyl side, *3 side chain or, on linkers, in order; H or OH if unused. Where a SMILES comes first, the peptide text is derived from it. Bridges are numbered along the chain shown (N, C = ends). TATA = O=C(CC[*:1])N1CN(C(=O)CC[*:2])CN(C(=O)CC[*:3])C1

What follows are molecules tested against TSLP (Homo sapiens, UniProt Q969D9) (assay: Human TSLP Surface Plasmon Resonance (SPR) binding assay). Settings: biotinylated human TSLP immobilized on streptavidin chip; 20° C.; steady-state or kinetic 1:1 fit; read-out: hTSLP SPR Kd.
Chain of TSLP (Q969D9 29-159): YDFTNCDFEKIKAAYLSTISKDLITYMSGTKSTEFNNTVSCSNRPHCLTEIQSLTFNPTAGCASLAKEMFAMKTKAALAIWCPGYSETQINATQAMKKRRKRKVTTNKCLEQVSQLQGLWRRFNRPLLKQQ
Design: The resulting construct spCD33-6×HN-TEV-hTSLP(29-159)-Avi; 6xHN tag with TEV site (N, cleaved yes); made in house; host or cells: Expi293F cells
CC(=O)N[C@H]1CSCCC(=O)N2CN3CN(C2)C(=O)CCSC[C@H](NC(=O)[C@H](CC(=O)O)NC(=O)[C@H](CCC(=O)O)NC(=O)[C@H](CC(C)C)NC(=O)[C@H](Cc2c[nH]c4ccccc24)NC(=O)[C@H](CCC(N)=O)NC1=O)C(=O)N[C@@H](Cc1c[nH]c2ccccc12)C(=O)N[C@@H](CCONC(=N)N)C(=O)NCC(=O)N[C@@H](Cc1ccccc1)C(=O)N[C@H](C(N)=O)CSCCC3=O [Example 131, Ac-(SEQ ID NO: 92)] gave a Kd of 400 nM. For CC(=O)N[C@H]1CSCCC(=O)N2CN3CN(C2)C(=O)CCSC[C@H](NC(=O)[C@H](CC(=O)O)NC(=O)[C@H](CCC(=O)O)NC(=O)[C@H](CC(C)C)NC(=O)[C@H](Cc2c[nH]c4ccccc24)NC(=O)[C@H](CCC(N)=O)NC1=O)C(=O)N[C@@H](Cc1c[nH]c2ccccc12)C(=O)N[C@@H](CCCNC(=N)N)C(=O)NCC(=O)N[C@@H](Cc1cccs1)C(=O)N[C@H](C(N)=O)CSCCC3=O [Example 135, Ac-(SEQ ID NO: 96)], the Kd was 490 nM. For CC(C)C[C@@H]1NC(=O)[C@H](Cc2c[nH]c3ccccc23)NC(=O)[C@H](CC(=O)O)NC(=O)[C@@H](NC(=O)[C@H](C)N)CSCCC(=O)N2CN3CN(C2)C(=O)CCSC[C@H](NC(=O)[C@H](CC(=O)O)NC(=O)[C@H](CC(=O)O)NC1=O)C(=O)N[C@@H](Cc1c[nH]c2ccccc12)C(=O)N[C@@H](CCCCN)C(=O)NCC(=O)N[C@@H](Cc1ccccc1)C(=O)N[C@H](C(=O)N[C@@H](C)C(N)=O)CSCCC3=O [Example 141, A-(SEQ ID NO: 100)-A] (H-ACDWLDDCWKGFCA-NH2; linker 2-8-13 via TATA; N-terminus and C-terminus assumed), the Kd was 600 nM. For COc1ccc(C[C@@H]2NC(=O)CNC(=O)[C@H](CCCNC(=N)N)NC(=O)[C@H](Cc3c[nH]c4ccccc34)NC(=O)[C@@H]3CSCCC(=O)N4CN(CN(C4)C(=O)CCSC[C@H](NC(C)=O)C(=O)N[C@@H](CCC(N)=O)C(=O)N[C@@H](Cc4c[nH]c5ccccc45)C(=O)N[C@@H](CC(C)C)C(=O)N[C@@H](CCC(=O)O)C(=O)N[C@@H](CC(=O)O)C(=O)N3)C(=O)CCSC[C@@H](C(N)=O)NC2=O)cc1 [Example 142, Ac-(SEQ ID NO: 101)], the Kd was 710 nM. With CC(=O)N[C@H]1CSCCC(=O)N2CN3CN(C2)C(=O)CCSC[C@H](NC(=O)[C@H](CC(=O)O)NC(=O)[C@H](CCC(=O)O)NC(=O)[C@H](CC(C)C)NC(=O)[C@H](Cc2c[nH]c4ccccc24)NC(=O)[C@H](CCC(N)=O)NC1=O)C(=O)N[C@@H](Cc1c[nH]c2ccccc12)C(=O)N[C@@H](CCCNC(=N)N)C(=O)NCC(=O)N[C@@H](Cc1cccc(Br)c1)C(=O)N[C@H](C(N)=O)CSCCC3=O [Example 143, Ac-(SEQ ID NO: 102)] the Kd was 750 nM. CC(=O)N[C@H]1CSCCC(=O)N2CN3CN(C2)C(=O)CCSC[C@H](NC(=O)[C@H](CC(=O)O)NC(=O)[C@H](CCC(=O)O)NC(=O)[C@H](CC(C)C)NC(=O)[C@H](Cc2c[nH]c4ccccc24)NC(=O)[C@H](CCC(N)=O)NC1=O)C(=O)N[C@@H](Cc1c[nH]c2ccccc12)C(=O)N[C@@H](CCCNC(=N)N)C(=O)NCC(=O)N[C@@H](Cc1ccccn1)C(=O)N[C@H](C(N)=O)CSCCC3=O [Example 146, Ac-(SEQ ID NO: 105)] showed a Kd of 910 nM. In the case of CC(=O)N[C@H]1CSCCC(=O)N2CN3CN(C2)C(=O)CCSC[C@H](NC(=O)[C@H](CC(=O)O)NC(=O)[C@H](CCC(=O)O)NC(=O)[C@H](CC[S+](C)[O-])NC(=O)[C@H](Cc2c[nH]c4ccccc24)NC(=O)[C@H](CCC(N)=O)NC1=O)C(=O)N[C@@H](Cc1c[nH]c2ccccc12)C(=O)N[C@@H](CCCNC(=N)N)C(=O)NCC(=O)N[C@@H](Cc1ccccc1)C(=O)N[C@H](C(N)=O)CSCCC3=O (some centres unmarked) [Example 147, Ac-(SEQ ID NO: 106)], the Kd is reported as 940 nM. With CC(=O)N[C@H]1CSCCC(=O)N2CN3CN(C2)C(=O)CCSC[C@H](NC(=O)[C@H](CC(=O)O)NC(=O)[C@H](CCC(=O)O)NC(=O)[C@H](CC(C)C)NC(=O)[C@H](Cc2c[nH]c4ccccc24)NC(=O)[C@H](CCC(N)=O)NC1=O)C(=O)N[C@@H](Cc1c[nH]c2ccccc12)C(=O)N[C@@H](CCCNC(=N)N)C(=O)NCC(=O)N[C@@H](CCc1ccccc1)C(=O)N[C@H](C(N)=O)CSCCC3=O [Example 148, Ac-(SEQ ID NO: 107)] the Kd was 1100 nM.
